Data published in paper PMC11234063, “Eugenol and lidocaine inhibit voltage-gated Na^+ channels from dorsal root ganglion neurons with different mechanisms” (Frontiers in Pharmacology, 2024).
Values joined by “and” are separate entries in the source; they are usually repeats but may differ in a detail not shown here. Equal values may be shown once. “Also recorded” adds a separate entry of the source. Read-outs that look alike come from different tables or passages of the source.

How the values were obtained:
Assay type in all cases: cell-based, rat
[1] = tested on: total INa (VGSCs of DRG neurons); test: Steady-state inactivation, 100-ms conditioning pre-pulses, total INa; conditions: EUG 2 mM, LID 1 mM
[2] = tested on: TTX-R INa (VGSCs of DRG neurons); test: Voltage dependence of Na+ conductance activation (I-V and G-V curves), TTX-R INa; conditions: EUG 2 mM
[3] = tested on: total INa (VGSCs naturally expressed on dorsal root ganglion sensory neurons); test: Dose–response inhibition of total INa peak, whole-cell patch clamp
[4] = tested on: total INa (VGSCs of DRG neurons); test: INa inactivation time constants during test pulse, total INa
[5] = tested on: DRG neuron; test: Action potential firing, current clamp; conditions: EUG 1 mM; 1-ms 1-nA depolarizing current injection
[6] = tested on: TTX-R INa (VGSCs of DRG neurons)
[7] = tested on: TTX-R INa (VGSCs of DRG neurons); test: Slow inactivation entry, three-pulse protocol, TTX-R INa
[8] = tested on: TTX-R INa (VGSCs of DRG neurons); conditions: EUG 2 mM, LID 1 mM
[9] = tested on: total INa (VGSCs of DRG neurons); test: Slow inactivation entry, three-pulse protocol, total INa
[10] = tested on: persistent total INa (DRG neurons); test: Persistent total INa at the end of 50-ms depolarizing pulses; conditions: EUG 2 mM, LID 1 mM
[11] = tested on: total INa (VGSCs of DRG neurons); test: Inhibition in depolarization time series at 2 and 5 Hz, total INa; conditions: EUG 2 mM, LID 1 mM
[12] = tested on: TTX-R INa (VGSCs of DRG neurons); conditions: EUG 2 mM, LID 1 mM; remark: listed apart in the source
[13] = tested on: TTX-R INa (VGSCs of DRG neurons); remark: listed apart in the source
[14] = tested on: total INa (VGSCs of DRG neurons); test: Voltage dependence of Na+ conductance activation (I-V and G-V curves), total INa; conditions: EUG 2 mM
[15] = inhibition at all activating voltages
[16] = individual cells, during exposure to EUG 2 mM or LID 1 mM

C=CCc1ccc(O)c(OC)c1 [EUG, 4-allyl-2-methoxyphenol]
Max slope-inact [1]: −12.2 ± 10.7 (n = 9) ns mV/e-fold | V1/2-inact [1]: −63.85 ± 2.92 (n = 9) mV | Max slope-inact in individual cells ([1]; individual cells): -14.8 mV/efold and -10.65 mV/efold and -13.47 mV/efold and -10.21 mV/efold and -17.93 mV/efold and -9.046 mV/efold and -7.985 mV/efold and -14.87 mV/efold and -11.22 mV/efold | V1/2-inact in individual cells ([1]; individual cells): -63.75 mV and -57.14 mV and -69.63 mV and -55.48 mV and -75.79 mV and -59.29 mV and -57.64 mV and -78.67 mV and -57.24 mV | Max slope-act ([2]; LID 1 mM): 6.4 ± 0.4 (n = 7) mV/e-fold | V1/2-act ([2]; LID 1 mM): −11.5 ± 1.96 (n = 7) ns mV | Effect on reversal potential of the currents [2, 15]: without significantly affecting | Max slope-act in individual cells ([2]; individual cells, LID 1 mM): 6.818 mV/efold and 6.311 mV/efold and 5.452 mV/efold and 4.894 mV/efold and 8.267 mV/efold and 6.510 mV/efold and 6.698 mV/efold | V1/2-act in individual cells ([2]; individual cells, LID 1 mM): -9.916 mV and -13.33 mV and -16.67 mV and -10.24 mV and -5.511 mV and -5.684 mV and -19.13 mV | Pre-inhibition of total INa ([3]; EUG at 1.3 mM): ~25% | Time to inhibition of INa upon addition ([3]; fast single-cell superfusion, 0.2 Hz time series): less than 5 s | Reversibility of inhibition after drug washout ([3]; total INa): fully reversible | Dose response curves' data, Average (fractional current), EUG (LID 0.5 mM) ([3]; total INa, EUG 0.1 mM in the presence of LID 0.5 mM): 0.97 | Dose response curves' data, Average (fractional current), EUG (LID 0.5 mM) ([3]; total INa, EUG 0.3 mM in the presence of LID 0.5 mM): 0.85 | Dose response curves' data, Average (fractional current), EUG (LID 0.5 mM) ([3]; total INa, EUG 1 mM in the presence of LID 0.5 mM): 0.60 | Dose response curves' data, Average (fractional current), EUG (LID 0.5 mM) ([3]; total INa, EUG 3 mM in the presence of LID 0.5 mM): 0.46 | Dose response curves' data, Average (fractional current), EUG (LID 0.5 mM) ([3]; total INa, EUG 10 mM in the presence of LID 0.5 mM): 0.10 | Dose response curves' data, Average (fractional current) ([3]; total INa, drug at 0.001 mM): 1.00 | Dose response curves' data, Average (fractional current) ([3]; total INa, drug at 0.1 mM): 0.98 | Dose response curves' data, Average (fractional current) ([3]; total INa, drug at 0.3 mM): 0.93 | Dose response curves' data, Average (fractional current) ([3]; total INa, drug at 1 mM): 0.86 | Dose response curves' data, Average (fractional current) ([3]; total INa, drug at 3 mM): 0.36 | Dose response curves' data, Average (fractional current) ([3]; total INa, drug at 10 mM): 0.07 | Dose response curves' data, Average (fractional current) ([3]; total INa, drug at 30 mM): 0.01 | IC50 ([3]; total INa, holding −110 mV, test +20 mV, drug alone): 2270 ± 75 µM | Time series of INa blockade, Average (normalized current) ([3]; total INa, time 15 sec, drug exposure): 0.55 | Time series of INa blockade, Average (normalized current) ([3]; total INa, time 20 sec, drug exposure): 0.54 | Time series of INa blockade, Average (normalized current) ([3]; total INa, time 25 sec, drug exposure): 0.54 | Time series of INa blockade, Average (normalized current) ([3]; total INa, time 30 sec, recovery): 0.96 | Time series of INa blockade, Average (normalized current) ([3]; total INa, time 35 sec, recovery): 0.99 | Time series of INa blockade, Average (normalized current) ([3]; total INa, time 40 sec, recovery): 0.99 | Effect on inactivation time constants [4]: unaffected | Effect on action potential firing [5]: promptly inhibits action potential firing; also recorded: prevents neurons from firing action potentials | Effect on inactivation time constants [6]: unaffected | Fast inactivation entry time constant ([7]; EUG 2 mM, LID 1 mM): 76.58 ± 30.563^ns ms | Fractional current when P1 = 2 m ([7]; EUG 2 mM, LID 1 mM): 0.93 ± 0.028^ns | Percent fast component (slow inactivation entry) ([7]; EUG 2 mM, LID 1 mM): 47.56 ± 16.257^ns % | Slow inactivation entry time constant ([7]; EUG 2 mM, LID 1 mM): 631.05 ± 282.320^ns | Slow inactivation state entry kinetics of INa, individual cells [7, 16]: 558.80 and 167.30 and 405.40 and 711.30 and 255.80 | Shift of the steady-state inactivation curve, on average ([8]; 100-ms conditioning pulse): −5 mV | Max slope-inact [8]: −5.83 ± 0.43 (n = 7) ns mV/e-fold | V1/2-inact [8]: −36.9 ± 2.48 (n = 7) mV | Max slope-inact in individual cells ([8]; individual cells): -5.184 mV/efold and -6.728 mV/efold and -5.779 mV/efold and -3.945 mV/efold and -7.158 mV/efold and -6.792 mV/efold and -5.233 mV/efold | V1/2-inact in individual cells ([8]; individual cells): -28.59 mV and -33.94 mV and -32.48 mV and -34.07 mV and -46.4 mV and -44.79 mV and -37.94 mV | Fast inactivation entry time constant ([9]; EUG 2 mM, LID 1 mM): 792.48 ± 298.530 ^ns ms | Fractional current when P1 = 2 m ([9]; EUG 2 mM, LID 1 mM): 0.82 ± 0.034 ^ns | Percent fast component (slow inactivation entry) ([9]; EUG 2 mM, LID 1 mM): 26.92 ± 4.583 ^ns % | Slow inactivation entry time constant ([9]; EUG 2 mM, LID 1 mM): 1,142.30 ± 246.525 ^ns | Slow inactivation state entry kinetics of INa, individual cells [9, 16]: 713.90 and 1928.00 and 344.50 and 1032.00 and 1066.00 | Inhibition of persistent total INa after 50-ms depolarization [10]: remarkably inhibited; also recorded: effectively inhibits | Fractional inhibition, 2 Hz, 1st pulse [11]: 0.53 ± 0.049 (n = 9) | Fractional inhibition, 5 Hz, 1st pulse [11]: 0.49 ± 0.056 (n = 8) | Fractional current after blockade, 2 Hz, 1st pulse, individual cells ([11]; individual cells): 0.40 and 0.52 and 0.58 and 0.37 and 0.28 and 0.50 and 0.730 and 0.29 and 0.53 | Fractional current after blockade, 2 Hz, 20th pulse, individual cells ([11]; individual cells): 0.36 and 0.54 and 0.56 (2×) and 0.34 and 0.15 and 0.49 and 0.74 and 0.26 | Fractional current after blockade, 5 Hz, 1st pulse, individual cells ([11]; individual cells): 0.4 and 0.56 and 0.58 and 0.35 | Fractional current after blockade, 5 Hz, 20th pulse, individual cells ([11]; individual cells): 0.31 (2×) and 0.47 and 0.54 | Fractional inhibition, 2 Hz, 20th pulse [12]: 0.44 ± 0.064 (n = 6) | Fractional inhibition, 5 Hz, 20th pulse [12]: 0.49 ± 0.061 (n = 6) | Fractional current after blockade, 2 Hz, 1st pulse, individual cells ([12]; individual cells): 0.62 and 0.6 and 0.47 and 0.55 | Fractional current after blockade, 2 Hz, 20th pulse, individual cells ([12]; individual cells): 0.56 and 0.48 and 0.36 and 0.46 | Fractional current after blockade, 5 Hz, 1st pulse, individual cells ([12]; individual cells): 0.75 and 0.63 and 0.55 and 0.51 | Fractional current after blockade, 5 Hz, 20th pulse, individual cells ([12]; individual cells): 0.66 and 0.54 and 0.36 and 0.43 | Reversibility of inhibition after drug washout [13]: fully reversible | Dose response curves' data, Average (fractional current) ([13]; drug at 0.1 mM): 0.96 | Dose response curves' data, Average (fractional current) ([13]; drug at 0.3 mM): 0.92 | Dose response curves' data, Average (fractional current) ([13]; drug at 1 mM): 0.85 | Dose response curves' data, Average (fractional current) ([13]; drug at 3 mM): 0.34 | Dose response curves' data, Average (fractional current) ([13]; drug at 10 mM): 0.14 | Dose response curves' data, Average (fractional current) ([13]; drug at 30 mM): 0.00 | IC50 ([13]; holding −110 mV, test +20 mV): 2210 ± 80 µM | Time series of INa blockade, Average (normalized current) ([13]; time 15 sec, drug exposure): 0.62 | Time series of INa blockade, Average (normalized current) ([13]; time 20 sec, drug exposure): 0.62 | Time series of INa blockade, Average (normalized current) ([13]; time 25 sec, drug exposure): 0.63 | Time series of INa blockade, Average (normalized current) ([13]; time 30 sec, recovery): 1.00 | Time series of INa blockade, Average (normalized current) ([13]; time 35 sec, recovery): 1.04 | Time series of INa blockade, Average (normalized current) ([13]; time 40 sec, recovery): 1.03 | Max slope-act ([14]; LID 1 mM): 5.4 ± 0.41 (n = 9) mV/e-fold | V1/2-act ([14]; LID 1 mM): −13.8 ± 2.18 (n = 9) mV | Effect on reversal potential of the currents [14, 15]: without significantly affecting | Max slope-act in individual cells ([14]; individual cells, LID 1 mM): 5.526 mV/efold and 5.494 mV/efold and 4.967 mV/efold and 6.616 mV/efold and 5.996 mV/efold and 6.156 mV/efold and 4.306 mV/efold and 2.717 mV/efold and 6.496 mV/efold | V1/2-act in individual cells ([14]; individual cells, LID 1 mM): -10.73 mV and -7.173 mV and -19.64 mV and -5.137 mV and -8.98 mV and -24.01 mV and -14.91 mV and -13.00 mV and -20.84 mV

C/C=C\c1ccc(O)c(OC)c1 [IEUG]
Dose response curves' data, Average (fractional current) ([3]; total INa, drug at 3 mM): 0.40 | Dose response curves' data, Average (fractional current) ([3]; total INa, drug at 10 mM): 0.02
